Article PMC10967448 (Antibiotics, 2024)
Values after ≈ are worked out from the molar mass of the structure shown. Like-named read-outs stand apart in the source and are kept apart here. Square brackets hold non-standard residues; d marks the D form. Peptide text beside a SMILES is read from it. Aib = CC(C)(N)C(=O)O

How the values were obtained:
ClpC = ClpC (Mycolicibacterium smegmatis, UniProt A0R574); experiment: biochemical; format: binding, Mycobacterium smegmatis
From the text: (§1) All the binding data were double-referenced by blank cycle and reference flow cell subtraction. The resulting data fit a 1:1 Langmuir binding model using Biacore Insight Evaluation Software 4.0 (GE Healthcare).

M. smegmatis [1] = tested on: M. smegmatis
M. smegmatis [2] = tested on: M. smegmatis; remark: listed apart in the source
ClpC (S437P) = ClpC (S437P) (Mycolicibacterium smegmatis, UniProt A0R574, S437P); experiment: biochemical; format: binding, Mycobacterium smegmatis
From the text: as §1

ClpCP1P2 = conditions: 10 μM COG1410; 1 μM ClpC, 2 μM ClpP1 and ClpP2, 100 μM ATP, 1 μM FITC-casein, 1 h, 37 °C, pH 7.5
[3] = tested on: pandrug-resistant Acinetobacter baumannii; design: method as in PMID 36081797; conditions: cited from earlier work
[4] = […], Tables 2 and 3 print no unit (text b20 uses μg/mL), micro-dilution, 37 °C, 48 h
[5] = […], Tables 2 and 3 print no unit, micro-dilution, 37 °C, 48 h
[6] = strain clpC (KD), Tables 2 and 3 print no unit, micro-dilution, 37 °C, 48 h

Chain of ClpC (A0R574 whole entry): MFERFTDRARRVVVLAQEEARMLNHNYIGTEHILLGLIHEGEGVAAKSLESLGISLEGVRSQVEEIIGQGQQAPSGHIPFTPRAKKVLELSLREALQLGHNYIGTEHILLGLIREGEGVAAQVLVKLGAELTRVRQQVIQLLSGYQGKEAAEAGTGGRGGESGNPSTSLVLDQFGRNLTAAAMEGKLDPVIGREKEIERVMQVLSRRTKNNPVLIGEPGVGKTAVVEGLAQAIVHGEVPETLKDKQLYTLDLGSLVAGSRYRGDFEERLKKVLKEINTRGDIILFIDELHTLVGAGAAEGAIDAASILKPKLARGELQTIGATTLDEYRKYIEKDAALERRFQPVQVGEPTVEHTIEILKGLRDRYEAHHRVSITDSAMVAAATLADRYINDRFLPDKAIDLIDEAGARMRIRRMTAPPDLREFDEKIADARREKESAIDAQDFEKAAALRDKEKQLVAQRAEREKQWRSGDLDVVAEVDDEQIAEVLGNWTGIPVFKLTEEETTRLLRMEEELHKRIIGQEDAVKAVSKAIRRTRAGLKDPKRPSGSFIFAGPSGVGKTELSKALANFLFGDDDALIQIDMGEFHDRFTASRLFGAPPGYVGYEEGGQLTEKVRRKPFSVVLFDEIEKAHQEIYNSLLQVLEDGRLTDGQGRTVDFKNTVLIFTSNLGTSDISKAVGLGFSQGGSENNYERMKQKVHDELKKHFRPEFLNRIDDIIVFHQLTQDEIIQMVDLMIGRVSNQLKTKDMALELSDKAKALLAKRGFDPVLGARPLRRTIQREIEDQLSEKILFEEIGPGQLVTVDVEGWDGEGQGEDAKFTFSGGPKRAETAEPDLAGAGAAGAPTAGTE
Chain of ClpC (S437P) (A0R574 whole entry S437P, looked up): as the sequence (A0R574 whole entry) above, with S437P counted along it

## CC(=O)N[C@@H](C)C(=O)N[C@@H](CO)C(=O)NC(C)(C)C(=O)N[C@@H](CC(C)C)C(=O)N[C@@H](CCCNC(=N)N)C(=O)N[C@@H](CCCCN)C(=O)N[C@@H](CC(C)C)C(=O)NC(C)(C)C(=O)N[C@@H](CCCCN)C(=O)N[C@@H](CCCNC(=N)N)C(=O)N[C@@H](CC(C)C)C(=O)N[C@@H](CC(C)C)C(N)=O [COG1410] (Ac-AS[Aib]LRKL[Aib]KRLL-NH2)
ClpC
  Kd: 2.03 µM
ClpC; pH 7.4, read-out: association constant (ka)
  kon: 5780 M⁻¹ s⁻¹
M. smegmatis [1]; strain 35g/pSMT3-ClpC (S437P)
  MBC: >256 µg/mL
M. smegmatis [1]; strain clpC (KD), knockdown
  MBC: >256 µg/mL
M. smegmatis [1]; strain clpC (KD)/pSMT3-ClpC (S437P)
  MBC: >256 µg/mL
M. smegmatis [2]; strain 35g/pSMT3-ClpC (S437P), micro-dilution, 37 °C, 48 h, triplicate
  MIC: 256 µg/mL (≈ 182 µM)
M. smegmatis [2]; strain WT/pSMT3-ClpC (overexpression), micro-dilution, 37 °C, 48 h, triplicate
  MIC: 16 µg/mL (≈ 11.4 µM)
M. smegmatis [2]; strain clpC (KD), knockdown, micro-dilution, 37 °C, 48 h, triplicate
  MIC: >256 µg/mL
M. smegmatis [2]; strain clpC (KD)/pSMT3-ClpC (S437P), micro-dilution, 37 °C, 48 h, triplicate
  MIC: >256 µg/mL
ClpC (S437P)
  Kd: 1.31 µM
ClpC (S437P); pH 7.4, read-out: ka
  kon: 9900 M⁻¹ s⁻¹

## NCC[C@H](O)C(=O)N[C@@H]1C[C@H](N)[C@@H](O[C@H]2O[C@H](CN)[C@@H](O)[C@H](O)[C@H]2O)[C@H](O)[C@H]1O[C@H]1O[C@H](CO)[C@@H](O)[C@H](N)[C@H]1O [amikacin]
M. smegmatis [2]; [4]
  MIC: 0.5
M. smegmatis [2]; [5]
  MIC: 0.5 µg/mL (≈ 0.854 µM)
M. smegmatis [2]; [6]
  MIC: 0.5 µg/mL (≈ 0.854 µM)

## CC[C@H]1OC(=O)[C@H](C)[C@@H](O[C@H]2C[C@@](C)(OC)[C@@H](O)[C@H](C)O2)[C@H](C)[C@@H](O[C@@H]2O[C@H](C)C[C@H](N(C)C)[C@H]2O)[C@](C)(O)C[C@@H](C)CN(C)[C@H](C)[C@@H](O)[C@]1(C)O [azithromycin]
M. smegmatis [2]; [4]
  MIC: 2
M. smegmatis [2]; [5]
  MIC: 2 µg/mL (≈ 2.67 µM)
M. smegmatis [2]; [6]
  MIC: 2 µg/mL (≈ 2.67 µM)

## CO[C@@]1(NC(=O)Cc2cccs2)C(=O)N2C(C(=O)O)=C(COC(N)=O)CS[C@@H]21 [cefoxitin]
M. smegmatis [2]; [4]
  MIC: 16
M. smegmatis [2]; [5]
  MIC: 16 µg/mL (≈ 37.4 µM)
M. smegmatis [2]; [6]
  MIC: 16 µg/mL (≈ 37.4 µM)

## CC(=O)NC[C@H]1CN(c2ccc(N3CCOCC3)c(F)c2)C(=O)O1 [linezolid]
M. smegmatis [2]; [4]
  MIC: 1
M. smegmatis [2]; [5]
  MIC: 1 µg/mL (≈ 2.96 µM)
M. smegmatis [2]; [6]
  MIC: 1 µg/mL (≈ 2.96 µM)

## IRMRIRVLL [antiTB_1080]
M. smegmatis [2]; [4]
  MIC: 32
M. smegmatis [2]; [5]
  MIC: 128 µg/mL
M. smegmatis [2]; [6]
  MIC: > 256 µg/mL

## LRKLRKRLVRLASHLRKLRKRLL [ApoE23]
M. smegmatis [2]
  MIC: 128 µg/mL
M. smegmatis [2]; [4]
  MIC: 128
M. smegmatis [2]; [5]
  MIC: > 128 µg/mL
M. smegmatis [2]; [6]
  MIC: > 128 µg/mL
ClpCP1P2
  increase in proteolytic activity, ClpCP1P2 system: substantial increase in proteolytic activity

## LRVRLASHLRKLRKRLL [COG133]
M. smegmatis [2]; M. smegmatis, result in words
  anti-mycobacterial activity: did not demonstrate anti-mycobacterial activity
M. smegmatis [2]; [4]
  MIC: >256
M. smegmatis [2]; [5]
  MIC: > 256 µg/mL
M. smegmatis [2]; [6]
  MIC: > 256 µg/mL
ClpCP1P2
  increase in proteolytic activity, ClpCP1P2 system: no influence on proteolytic activity

## WKWLKKWIK [antiTB_1026]
M. smegmatis [2]; [4]
  MIC: 32
M. smegmatis [2]; [5]
  MIC: 256 µg/mL
M. smegmatis [2]; [6]
  MIC: > 256 µg/mL

## polymyxin B
[3]
  fold increase of MIC after 55 passages in the presence of sub-MIC agent: 64 fold
